What was measured:
Aβ42 oligomers = molecular target: T1, Aβ42 oligomers (Homo sapiens, UniProt P05067); experiment: fluorescence titration, one-site binding regression; details: read-out: Aβ oligomers / Kd
T1 construct: gene APP; commercial Abeta(1-42) peptide, cut from APP precursor; soluble oligomers prepared via HFIP/water, stirred 24-48 h at ~22 °C, confirmed by TEM
From the text: fluorescence titration, one-site binding regression on Aβ42 oligomers

Aβ42 monomers = molecular target: T2, Aβ42 monomers (Homo sapiens, UniProt P05067); experiment: as above; details: read-out: Aβ monomers / Kd
T2 construct: gene APP; commercial Abeta(1-42) peptide (Nanjing Peptide Biotech), cut from APP precursor; monomer stock in hexafluoroisopropanol
From the text: fluorescence titration, one-site binding regression on Aβ42 monomers

T1 sequence (P05067 672-713): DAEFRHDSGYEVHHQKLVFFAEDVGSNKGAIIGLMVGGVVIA
T2 sequence (P05067 672-713): as above

Compound: CN(C)c1ccc2cc(/C=C/C3=CC(/C=C/C=C4N(C)c5ccccc5C4(C)C)=[O+][B-](F)(F)O3)ccc2c1 [compound 7, probe 7]
- Kd (Aβ42 oligomers): 167 ± 19.9 nM
- Kd (Aβ42 monomers): 64.2 ± 5.38 nM
